Among the test systems are SK-MEL-28 melanoma; 786-0 renal; SK-OV-3 ovarian; UACC-257 melanoma; BT-549 breast; IGROV1 ovarian; NCI-H226 lung; A549 NSCLC; RPMI-8226 leukemia; KM12 colon.
Common to all, as to assay: NCI-60 cell line screen, 48 h

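Results reflect a 48-hour exposure of cells in 96-well plates to compound at five concentrations. Here, GI50 denotes the concentration required for 50% inhibition of growth. At the TGI there is no net growth.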

Take `C=C(C)[C@@H]1CC[C@]2(C(=O)O)CC[C@]3(C)[C@H](CC[C@@H]4[C@@]5(C)CCC(NC(=O)c6cccc(OC(C)=O)c6OC(C)=O)C(C)(C)[C@@H]5CC[C@]43C)[C@@H]12` (stereo partly drawn): the GI50 with SK-MEL-28 melanoma is 0.46 µM; in the test with 786-0 renal, 0.661 µM; in the test on SK-OV-3 ovarian, 1.89 µM; in the test with UACC-257 melanoma, 0.209 µM; in the test with BT-549 breast, 1.18 µM; with IGROV1 ovarian it was 0.604 µM. In addition, the GI50 with NCI-H226 lung is 1.69 µM; in the test on A549 NSCLC it was 0.409 µM; in the test with RPMI-8226 leukemia it was 0.697 µM; in the test with KM12 colon, 0.651 µM. In addition, the TGI with SK-MEL-28 melanoma is 3.03 µM; with 786-0 renal, 3.47 µM; in the test on SK-OV-3 ovarian it was > 20.4 µM; in the test on UACC-257 melanoma, 0.78 µM; in the test on BT-549 breast it was 3.67 µM; in the test on IGROV1 ovarian, 5.34 µM. In addition, the TGI worked out at 4.59 µM in the test on NCI-H226 lung, 2.47 µM in the test on A549 NSCLC, 4.44 µM in the test with RPMI-8226 leukemia and 3.46 µM in the test with KM12 colon.

As to `C=C(NC(=O)C(=C)NC(=O)c1csc(C2=NC3c4csc(n4)C4NC(=O)c5csc(n5)C(C(C)(O)C(C)O)NC(=O)C5CSC(=N5)C(=CC)NC(=O)C(C(C)O)NC(=O)c5csc(n5)C3(CC2)NC(=O)C(C)NC(=O)C(=C)NC(=O)C(C)NC(=O)C(C(C)CC)NC2C=Cc3c(C(C)O)cc(nc3C2O)C(=O)OC4C)n1)C(N)=O` (stereo not drawn), the GI50 is 7.09 µM in the test with SK-MEL-28 melanoma; 5.49 µM with 786-0 renal; 54 µM with SK-OV-3 ovarian; 29.4 µM in the test on UACC-257 melanoma; 2.1 µM in the test on BT-549 breast; 64.8 µM in the test on IGROV1 ovarian. Besides, the GI50 with NCI-H226 lung was 2.18 µM; in the test on A549 NSCLC it was 57.3 µM; with RPMI-8226 leukemia, 1.79 µM; in the test on KM12 colon, 5.52 µM. Moreover, the TGI is 24.5 µM with SK-MEL-28 melanoma; 19.7 µM in the test on 786-0 renal; > 100 µM in the test with SK-OV-3 ovarian; > 100 µM in the test with UACC-257 melanoma; 4.71 µM in the test with BT-549 breast; > 100 µM in the test with IGROV1 ovarian. In addition, the TGI with NCI-H226 lung is 7.71 µM; in the test with A549 NSCLC, > 100 µM; in the test with RPMI-8226 leukemia, 19.7 µM; in the test on KM12 colon, 27.5 µM.

With `COc1cc2ncn(-c3cc(O[C@@H](C)c4ccccc4Cl)c(C(N)=O)s3)c2cc1OC`, the GI50 in the test on SK-MEL-28 melanoma was 3.84 µM; in the test with 786-0 renal, 4.43 µM; in the test on SK-OV-3 ovarian, 0.803 µM; in the test on UACC-257 melanoma, 3.1 µM; with BT-549 breast, 2.94 µM; in the test on IGROV1 ovarian, 3.69 µM. Also, the GI50 in the test with NCI-H226 lung was 2.3 µM; in the test with A549 NSCLC, 1.45 µM; in the test with RPMI-8226 leukemia it was 1.49 µM; in the test on KM12 colon, 0.559 µM. Also, the TGI in the test with SK-MEL-28 melanoma was > 25 µM; with 786-0 renal it was > 25 µM; in the test on SK-OV-3 ovarian, > 25 µM; in the test on UACC-257 melanoma it was > 21.9 µM; in the test with BT-549 breast it was > 24.1 µM; with IGROV1 ovarian, > 25 µM. In addition, the TGI was > 19.4 µM in the test with NCI-H226 lung, > 25 µM in the test on A549 NSCLC, > 19 µM in the test on RPMI-8226 leukemia and > 25 µM in the test with KM12 colon.

As to `COc1cc2c(cc1OC)-c1ccc3cc4c(cc3c1N(CCCn1ccnc1)C2)OCO4`, the GI50 with SK-MEL-28 melanoma is 3.74 µM; in the test with 786-0 renal it was 6.04 µM; with SK-OV-3 ovarian, 3.84 µM; in the test on UACC-257 melanoma, 5.9 µM; in the test on BT-549 breast it was 3.78 µM; in the test with IGROV1 ovarian, 3.61 µM. The GI50 in the test on NCI-H226 lung is 5.52 µM; in the test with A549 NSCLC, 8.39 µM; in the test with RPMI-8226 leukemia, 1.31 µM; with KM12 colon it was 6.05 µM. For the same molecule, the TGI turned out to be 17.7 µM with SK-MEL-28 melanoma; 32.8 µM in the test with 786-0 renal; 26.8 µM in the test with SK-OV-3 ovarian; 23.3 µM in the test with UACC-257 melanoma; 17.9 µM with BT-549 breast; 29.9 µM in the test with IGROV1 ovarian. Also, the TGI in the test on NCI-H226 lung was 24.8 µM; in the test on A549 NSCLC, 32.1 µM; in the test with RPMI-8226 leukemia, 5.62 µM; in the test on KM12 colon, 31.8 µM.

Consider `CNC(=O)c1ccc(N2C(=S)N(c3ccc(C#N)c(C(F)(F)F)c3)C(=O)C2(C)C)cc1F`, for which the GI50 in the test with SK-MEL-28 melanoma was > 51.8 µM; with 786-0 renal, > 44.2 µM; in the test on SK-OV-3 ovarian it was > 51 µM; with UACC-257 melanoma, 35.1 µM; with BT-549 breast, 22.3 µM; in the test on IGROV1 ovarian, 40.3 µM. Further, the GI50 was 39.7 µM in the test on NCI-H226 lung, 33.6 µM in the test with A549 NSCLC, 24.4 µM in the test with RPMI-8226 leukemia and 48.1 µM with KM12 colon. Besides, the TGI is > 96.1 µM with SK-MEL-28 melanoma; > 73.5 µM in the test with 786-0 renal; > 93.1 µM in the test with SK-OV-3 ovarian; > 80.7 µM with UACC-257 melanoma; > 73.4 µM in the test with BT-549 breast; > 100 µM with IGROV1 ovarian. The TGI in the test with NCI-H226 lung is > 71.9 µM; with A549 NSCLC it was > 95.4 µM; with RPMI-8226 leukemia it was > 80 µM; with KM12 colon it was > 91.1 µM.

With `Cc1nc2sc(C(=O)Nc3cccc4ccccc34)c(N)c2cc1C(O)c1ccccc1` (stereo not drawn), the GI50 is 1.14 µM in the test on SK-MEL-28 melanoma; 0.123 µM with 786-0 renal; 0.0702 µM in the test on SK-OV-3 ovarian; 1.5 µM in the test with UACC-257 melanoma; 0.144 µM in the test with BT-549 breast; 0.0651 µM in the test on IGROV1 ovarian. In addition, the GI50 with NCI-H226 lung is 1.19 µM; with A549 NSCLC, 0.0916 µM; in the test on RPMI-8226 leukemia, 0.0595 µM; with KM12 colon it was 0.044 µM. The TGI in the test with SK-MEL-28 melanoma came out at 24.2 µM; with 786-0 renal, 9.69 µM; with SK-OV-3 ovarian, 67.4 µM; in the test with UACC-257 melanoma, 26.4 µM; with BT-549 breast, 3.63 µM; in the test with IGROV1 ovarian, 12.4 µM. Moreover, the TGI is 28.4 µM in the test with NCI-H226 lung, > 100 µM in the test with A549 NSCLC, 5.74 µM with RPMI-8226 leukemia and 1.73 µM in the test with KM12 colon.

As to `O=c1ccs[nH]1`, the TGI in the test with SK-MEL-28 melanoma came out at 67.5 µM; in the test with 786-0 renal, 21.4 µM; in the test on SK-OV-3 ovarian, 72.5 µM; in the test with UACC-257 melanoma it was 33.2 µM; with BT-549 breast, 40.3 µM; in the test on IGROV1 ovarian it was 66.5 µM. Moreover, the TGI was 71.6 µM with NCI-H226 lung, 41.4 µM in the test with A549 NSCLC, 21.8 µM in the test with RPMI-8226 leukemia and 62.1 µM in the test with KM12 colon.

`CC(=Nc1ccccc1)C1=C(O)C(Cc2ccc(O)cc2)NC1=O` (stereo not drawn): the GI50 is 0.0594 µM in the test with SK-MEL-28 melanoma; 0.505 µM in the test with 786-0 renal; 0.162 µM in the test on SK-OV-3 ovarian; > 100 µM in the test on UACC-257 melanoma; 0.0577 µM with BT-549 breast; 0.232 µM in the test on IGROV1 ovarian. The GI50 in the test on NCI-H226 lung was 0.968 µM; in the test with A549 NSCLC it was 0.126 µM; in the test with RPMI-8226 leukemia, 0.169 µM; in the test on KM12 colon, 0.0472 µM. For the same molecule, the TGI in the test with SK-MEL-28 melanoma was > 100 µM; in the test with 786-0 renal it was > 100 µM; with SK-OV-3 ovarian it was > 50 µM; in the test on UACC-257 melanoma, > 100 µM; with BT-549 breast, 1.12 µM; with NCI-H226 lung, > 100 µM. Also, the TGI with A549 NSCLC is > 100 µM; in the test on RPMI-8226 leukemia, > 100 µM; with KM12 colon, 1.31 µM.

Take `CC(C)C[C@H](NC(=O)Cn1ccc(NCc2ccccc2)cc1=O)B(O)O`: the GI50 in the test with SK-MEL-28 melanoma is 0.6 µM; in the test with 786-0 renal it was 2.02 µM; in the test with SK-OV-3 ovarian, 13.7 µM; in the test on UACC-257 melanoma, 0.961 µM; in the test with BT-549 breast, 0.431 µM; with IGROV1 ovarian, 8.05 µM. For the same molecule, the GI50 with NCI-H226 lung is 1.19 µM; in the test on A549 NSCLC, 5.15 µM; in the test on RPMI-8226 leukemia, 0.304 µM; in the test with KM12 colon, 3.62 µM. In addition, the TGI with SK-MEL-28 melanoma was 47 µM; in the test on 786-0 renal it was > 40.1 µM; with SK-OV-3 ovarian, > 100 µM; in the test on UACC-257 melanoma, 4.73 µM; in the test on BT-549 breast, 2.59 µM; in the test on IGROV1 ovarian, 54.7 µM. Further, the results for the TGI in the test on NCI-H226 lung, in the test on A549 NSCLC and with KM12 colon were 5.84 µM, > 100 µM and 17.1 µM, respectively.

The values are drawn from PubChem BioAssay (NCI).
